Assay results: ChEMBL document CHEMBL4004831, “Naphthalene diimide-polyamine hybrids as antiproliferative agents: Focus on the architecture of the polyamine chains” (Eur J Med Chem, 2017)

Key:
Type in all cases: functional
[1] = system: MDA-MB-468; assay: Growth inhibition of human MDA-MB-468 cells incubated for 48 hrs by sulforhodamine B assay; conditions: MDA-MB-468, 48 h
[2] = system: A549; assay: Growth inhibition of human A549/ATCC cells incubated for 48 hrs by sulforhodamine B assay; conditions: A549, 48 h
[3] = system: T47D; assay: Growth inhibition of human T47D cells incubated for 48 hrs by sulforhodamine B assay
[4] = system: HCT-15; assay: Growth inhibition of human HCT15 cells incubated for 48 hrs by sulforhodamine B assay; conditions: HCT-15, 48 h
[5] = system: MDA-MB-231; assay: Growth inhibition of human MDA-MB-231 cells incubated for 48 hrs by sulforhodamine B assay; conditions: MDA-MB-231, 48 h
[6] = system: M14; assay: Growth inhibition of human M14 cells incubated for 48 hrs by sulforhodamine B assay; conditions: M14, 48 h
[7] = system: ACHN; assay: Growth inhibition of human ACHN cells incubated for 48 hrs by sulforhodamine B assay
[8] = system: 786-0; assay: Growth inhibition of human 786-0 cells incubated for 48 hrs by sulforhodamine B assay; conditions: 786-0, 48 h
[9] = system: NCI-H460; assay: Growth inhibition of human NCI-H460 cells incubated for 48 hrs by sulforhodamine B assay; conditions: NCI-H460, 48 h
[10] = system: DU-145; assay: Growth inhibition of human DU145 cells incubated for 48 hrs by sulforhodamine B assay; conditions: DU-145, 48 h
[11] = system: RPMI-8226; assay: Growth inhibition of human RPMI8226 cells incubated for 48 hrs by sulforhodamine B assay; conditions: RPMI-8226, 48 h
[12] = system: SK-OV-3; assay: Growth inhibition of human SKOV3 cells incubated for 48 hrs by sulforhodamine B assay; conditions: SK-OV-3, 48 h
[13] = system: KM12; assay: Growth inhibition of human KM12 cells incubated for 48 hrs by sulforhodamine B assay; conditions: KM12, 48 h
[14] = system: NCI-H322M; assay: Growth inhibition of human NCI-H322M cells incubated for 48 hrs by sulforhodamine B assay
[15] = system: HCC 2998; assay: Growth inhibition of human HCC2998 cells incubated for 48 hrs by sulforhodamine B assay; conditions: HCC 2998, 48 h
[16] = system: SW-620; assay: Growth inhibition of human SW620 cells incubated for 48 hrs by sulforhodamine B assay; conditions: SW-620, 48 h
[17] = system: SNB-19; assay: Growth inhibition of human SNB19 cells incubated for 48 hrs by sulforhodamine B assay; conditions: SNB-19, 48 h
[18] = system: NCI-H522; assay: Growth inhibition of human NCI-H522 cells incubated for 48 hrs by sulforhodamine B assay; conditions: NCI-H522, 48 h
[19] = system: SF-539; assay: Growth inhibition of human SF539 cells incubated for 48 hrs by sulforhodamine B assay; conditions: SF-539, 48 h
[20] = system: K562; assay: Growth inhibition of human K562 cells incubated for 48 hrs by sulforhodamine B assay; conditions: K562, 48 h
[21] = system: SF-268; assay: Growth inhibition of human SF268 cells incubated for 48 hrs by sulforhodamine B assay; conditions: SF-268, 48 h
[22] = system: UACC-62; assay: Growth inhibition of human UACC62 cells incubated for 48 hrs by sulforhodamine B assay; conditions: UACC-62, 48 h
[23] = system: OVCAR-3; assay: Growth inhibition of human OVCAR3 cells incubated for 48 hrs by sulforhodamine B assay; conditions: OVCAR-3, 48 h
[24] = system: Hs-578T; assay: Growth inhibition of human Hs 578T cells incubated for 48 hrs by sulforhodamine B assay
[25] = system: NCI-H226; assay: Growth inhibition of human NCI-H226 cells incubated for 48 hrs by sulforhodamine B assay; conditions: NCI-H226, 48 h
[26] = system: SK-MEL-5; assay: Growth inhibition of human SK-MEL-5 cells incubated for 48 hrs by sulforhodamine B assay; conditions: SK-MEL-5, 48 h
[27] = system: NCI/ADR-RES; assay: Growth inhibition of human NCI-ADR-RES cells incubated for 48 hrs by sulforhodamine B assay
[28] = system: HL-60; assay: Growth inhibition of human HL60 cells incubated for 48 hrs by sulforhodamine B assay; conditions: HL-60, 48 h
[29] = system: OVCAR-8; assay: Growth inhibition of human OVCAR8 cells incubated for 48 hrs by sulforhodamine B assay; conditions: OVCAR-8, 48 h
[30] = system: HOP-62; assay: Growth inhibition of human HOP62 cells incubated for 48 hrs by sulforhodamine B assay; conditions: HOP-62, 48 h
[31] = system: COLO 205; assay: Growth inhibition of human COLO205 cells incubated for 48 hrs by sulforhodamine B assay; conditions: COLO 205, 48 h
[32] = system: SF-295; assay: Growth inhibition of human SF295 cells incubated for 48 hrs by sulforhodamine B assay; conditions: SF-295, 48 h
[33] = system: SR; assay: Growth inhibition of human SR cells incubated for 48 hrs by sulforhodamine B assay
[34] = system: RXF 393; assay: Growth inhibition of human RXF393 cells incubated for 48 hrs by sulforhodamine B assay; conditions: RXF 393, 48 h
[35] = system: CAKI-1; assay: Growth inhibition of human Caki1 cells incubated for 48 hrs by sulforhodamine B assay; conditions: CAKI-1, 48 h
[36] = system: UO-31; assay: Growth inhibition of human UO31 cells incubated for 48 hrs by sulforhodamine B assay; conditions: UO-31, 48 h
[37] = system: TK-10; assay: Growth inhibition of human TK10 cells incubated for 48 hrs by sulforhodamine B assay; conditions: TK-10, 48 h
[38] = system: MDA-MB-435; assay: Growth inhibition of human MDA-MB-435 cells incubated for 48 hrs by sulforhodamine B assay; conditions: MDA-MB-435, 48 h
[39] = system: CCRF-CEM; assay: Growth inhibition of human CCRF-CEM cells incubated for 48 hrs by sulforhodamine B assay
[40] = system: OVCAR-4; assay: Growth inhibition of human OVCAR4 cells incubated for 48 hrs by sulforhodamine B assay; conditions: OVCAR-4, 48 h
[41] = system: HT-29; assay: Growth inhibition of human HT-29 cells incubated for 48 hrs by sulforhodamine B assay; conditions: HT-29, 48 h
[42] = system: BT-549; assay: Growth inhibition of human BT549 cells incubated for 48 hrs by sulforhodamine B assay; conditions: BT-549, 48 h
[43] = system: NCI-H23; assay: Growth inhibition of human NCI-H23 cells incubated for 48 hrs by sulforhodamine B assay; conditions: NCI-H23, 48 h
[44] = system: PC-3; assay: Growth inhibition of human PC3 cells incubated for 48 hrs by sulforhodamine B assay; conditions: PC-3, 48 h
[45] = system: IGROV-1; assay: Growth inhibition of human IGROV1 cells incubated for 48 hrs by sulforhodamine B assay; conditions: IGROV-1, 48 h
[46] = system: A498; assay: Growth inhibition of human A498 cells incubated for 48 hrs by sulforhodamine B assay; conditions: A498, 48 h
[47] = system: MOLT-4; assay: Growth inhibition of human MOLT4 cells incubated for 48 hrs by sulforhodamine B assay; conditions: MOLT-4, 48 h
[48] = system: HOP-92; assay: Growth inhibition of human HOP92 cells incubated for 48 hrs by sulforhodamine B assay; conditions: HOP-92, 48 h

## COc1ccccc1CNCCCN1C(=O)c2ccc3c4c(ccc(c24)C1=O)C(=O)N(CCCNCCCCNCCCN)C3=O
[1]
  GI50: 133 nM
[2]
  GI50: 581 nM
[3]
  GI50: 214 nM
[4]
  GI50: 1740 nM
[5]
  GI50: 435 nM
[6]
  GI50: 645 nM
[7]
  GI50: 747 nM
[8]
  GI50: 1170 nM
[9]
  GI50: 311 nM
[10]
  GI50: 693 nM
[11]
  GI50: 626 nM
[12]
  GI50: 2110 nM
[13]
  GI50: 340 nM
[14]
  GI50: 1210 nM
[15]
  GI50: 296 nM
[16]
  GI50: 262 nM
[17]
  GI50: 579 nM
[18]
  GI50: 180 nM
[19]
  GI50: 426 nM
[20]
  GI50: 301 nM
[21]
  GI50: 338 nM
[22]
  GI50: 364 nM
[23]
  GI50: 262 nM
[24]
  GI50: 1360 nM
[25]
  GI50: 928 nM
[26]
  GI50: 156 nM
[27]
  GI50: 2040 nM
[28]
  GI50: 438 nM
[29]
  GI50: 288 nM
[30]
  GI50: 664 nM
[31]
  GI50: 168 nM
[32]
  GI50: 1080 nM
[33]
  GI50: 325 nM
[34]
  GI50: 324 nM
[35]
  GI50: 2610 nM
[36]
  GI50: 2680 nM
[37]
  GI50: 422 nM
[38]
  GI50: 213 nM
[39]
  GI50: 425 nM
[40]
  GI50: 160 nM
[41]
  GI50: 309 nM
[42]
  GI50: 1710 nM
[43]
  GI50: 356 nM
[44]
  GI50: 564 nM
[45]
  GI50: 360 nM
[46]
  GI50: 1340 nM
[47]
  GI50: 584 nM
[48]
  GI50: 687 nM

## COc1ccccc1CNCCCN1C(=O)c2ccc3c4c(ccc(c24)C1=O)C(=O)N(CCCNCCCN)C3=O
[1]
  GI50: 246 nM
[2]
  GI50: 148 nM
[3]
  GI50: 793 nM
[4]
  GI50: 887 nM
[5]
  GI50: 1420 nM
[6]
  GI50: 992 nM
[7]
  GI50: 529 nM
[8]
  GI50: 715 nM
[9]
  GI50: 154 nM
[10]
  GI50: 638 nM
[11]
  GI50: 612 nM
[12]
  GI50: 1040 nM
[13]
  GI50: 705 nM
[14]
  GI50: 1070 nM
[15]
  GI50: 352 nM
[16]
  GI50: 109 nM
[17]
  GI50: 702 nM
[18]
  GI50: 572 nM
[19]
  GI50: 968 nM
[20]
  GI50: 264 nM
[21]
  GI50: 410 nM
[22]
  GI50: 655 nM
[23]
  GI50: 332 nM
[24]
  GI50: 1220 nM
[25]
  GI50: 746 nM
[26]
  GI50: 484 nM
[27]
  GI50: 1160 nM
[28]
  GI50: 812 nM
[29]
  GI50: 73 nM
[30]
  GI50: 466 nM
[31]
  GI50: 457 nM
[32]
  GI50: 456 nM
[33]
  GI50: 28 nM
[34]
  GI50: 246 nM
[35]
  GI50: 828 nM
[36]
  GI50: 745 nM
[37]
  GI50: 1610 nM
[38]
  GI50: 570 nM
[39]
  GI50: 193 nM
[40]
  GI50: 873 nM
[41]
  GI50: 160 nM
[42]
  GI50: 1440 nM
[43]
  GI50: 318 nM
[44]
  GI50: 477 nM
[45]
  GI50: 275 nM
[46]
  GI50: 398 nM
[47]
  GI50: 194 nM
[48]
  GI50: 1120 nM

## COc1ccccc1CNCCCN1C(=O)c2ccc3c4c(ccc(c24)C1=O)C(=O)N(CCCOCCCCOCCCN)C3=O
[1]
  GI50: 289 nM
[2]
  GI50: 1220 nM
[3]
  GI50: 976 nM
[4]
  GI50: 550 nM
[5]
  GI50: 1220 nM
[6]
  GI50: 1090 nM
[7]
  GI50: 1110 nM
[8]
  GI50: 1530 nM
[9]
  GI50: 657 nM
[10]
  GI50: 1780 nM
[11]
  GI50: 1720 nM
[12]
  GI50: 2360 nM
[13]
  GI50: 1270 nM
[14]
  GI50: 1900 nM
[15]
  GI50: 635 nM
[16]
  GI50: 357 nM
[17]
  GI50: 1530 nM
[18]
  GI50: 919 nM
[19]
  GI50: 1680 nM
[20]
  GI50: 494 nM
[21]
  GI50: 1430 nM
[22]
  GI50: 742 nM
[23]
  GI50: 593 nM
[24]
  GI50: 2020 nM
[25]
  GI50: 1560 nM
[26]
  GI50: 288 nM
[27]
  GI50: 1470 nM
[28]
  GI50: 810 nM
[29]
  GI50: 491 nM
[30]
  GI50: 2660 nM
[31]
  GI50: 233 nM
[32]
  GI50: 1420 nM
[33]
  GI50: 346 nM
[34]
  GI50: 771 nM
[35]
  GI50: 1830 nM
[36]
  GI50: 1550 nM
[37]
  GI50: 1970 nM
[38]
  GI50: 200 nM
[39]
  GI50: 550 nM
[40]
  GI50: 197 nM
[41]
  GI50: 402 nM
[42]
  GI50: 1950 nM
[43]
  GI50: 605 nM
[44]
  GI50: 1440 nM
[45]
  GI50: 1260 nM
[46]
  GI50: 1320 nM
[47]
  GI50: 546 nM
[48]
  GI50: 2080 nM
